{
  "source": "ChEMBL document CHEMBL1143051",
  "about": "“Novel cationic lipophilic peptides for oligodeoxynucleotide delivery” (Bioorg Med Chem, 2007)",
  "key": {"[1]": {"assay": "Effect on transfection efficacy in human D407 cells assessed as reduction of hVEGF expression after 24 hrs by ELISA", "format": "functional"}, "[2]": {"assay": "Apparent permeability across human Caco-2 cells", "format": "ADME, cell-based"}, "[3]": {"assay": "Toxicity assessed as induction of haemolysis in rat erythrocytes at 1 mM after 30 mins", "format": "cell-based, Erythrocyte", "settings": "read-out: Activity"}, "[4]": {"assay": "Inhibition of IL2 production in antigen stimulated mouse 2B4.11 T hybridoma cells at 5 uM", "format": "functional"}, "[5]": {"assay": "Inhibition of IL2 production in antigen stimulated mouse 2B4.11 T hybridoma cells at 10 uM", "format": "functional"}, "[6]": {"assay": "Inhibition of IL2 production in antigen stimulated mouse 2B4.11 T hybridoma cells at 25 uM", "format": "functional"}, "[7]": {"assay": "Effect on transfection efficacy in human D407 cells assessed as reduction of hVEGF expression after 48 hrs by ELISA", "format": "functional"}, "T-cell": {"system": "T-cell", "assay": "Inhibition of activation of antigen stimulated mouse 2B4.11 T cells assessed as IL2 production", "format": "functional, cell-based"}},
  "note": "Square brackets hold non-standard residues; d marks the D form. Peptide text beside a SMILES is read from it. ξ: configuration not given here. ξGly(decyl) = CCCCCCCCCCC(N)C(=O)O",
  "data": [
    {"smiles": "CC[C@H](C)[C@H](NC(=O)[C@H](CCCNC(=N)N)NC(=O)[C@H](CC(C)C)NC(=O)CN)C(=O)N[C@@H](CC(C)C)C(=O)N[C@@H](CC(C)C)C(=O)N[C@@H](CC(C)C)C(=O)N[C@@H](CCCCN)C(=O)N[C@H](C(=O)O)C(C)C", "note": "(H-GLRILLLKV-OH)", "values": [
      {"measurement": "Inhibition", "setting": "[1]", "value": 55, "unit": "%"},
      {"measurement": "Papp", "setting": "[2]", "value": 0.042, "unit": "×10⁻⁶ cm/s"},
      {"measurement": "hemolysis at 0.5 h, 1000 µM", "setting": "[3]", "value": "< 2", "unit": "%"},
      {"measurement": "Inhibition", "setting": "[4]", "value": 107, "unit": "%"},
      {"measurement": "Inhibition", "setting": "[5]", "value": 102.53, "unit": "%"},
      {"measurement": "Inhibition", "setting": "[6]", "value": 74.52, "unit": "%"},
      {"measurement": "Inhibition", "setting": "[7]", "value": 63, "unit": "%"}
    ]},
    {"smiles": "OC[C@@H](O)[C@@H](O)[C@H](O)[C@H](O)CO", "note": "[MANNITOL]", "values": [
      {"measurement": "Papp", "setting": "[2]", "value": 0.555, "unit": "×10⁻⁶ cm/s"}
    ]},
    {"smiles": "CCCCCCCCCCC(N)C(=O)NCC(=O)N[C@@H](CC(C)C)C(=O)N[C@@H](CCCNC(=N)N)C(=O)N[C@H](C(=O)N[C@@H](CC(C)C)C(=O)N[C@@H](CC(C)C)C(=O)N[C@@H](CC(C)C)C(=O)N[C@@H](CCCCN)C(=O)N[C@H](C(=O)O)C(C)C)[C@@H](C)CC", "note": "(stereo partly specified) (H-[ξGly(decyl)]GLRILLLKV-OH)", "values": [
      {"measurement": "Inhibition", "setting": "[1]", "value": 70, "unit": "%"},
      {"measurement": "Activity", "setting": "T-cell", "value": "Dose-dependent effect"},
      {"measurement": "Papp", "setting": "[2]", "value": 0.11, "unit": "×10⁻⁶ cm/s"},
      {"measurement": "hemolysis at 0.5 h, 1000 µM", "setting": "[3]", "value": "< 2", "unit": "%"},
      {"measurement": "Inhibition", "setting": "[4]", "value": 105.7, "unit": "%"},
      {"measurement": "Inhibition", "setting": "[5]", "value": 48.13, "unit": "%"},
      {"measurement": "Inhibition", "setting": "[6]", "value": 81.17, "unit": "%"},
      {"measurement": "Inhibition", "setting": "[7]", "value": 76, "unit": "%"}
    ]}
  ]
}
